Literature values as cited in patent US20060182790A1, “Dermal medicaments application enhancer” (priority 2005, published 2006).

solubility in chloroform (chloroform): practically insoluble
solubility in ethanol (ethanol): slightly soluble
solubility in hexane (hexane): practically insoluble
solubility in methanol (methanol): slightly soluble
solubility in mineral oil (mineral oil): practically insoluble
solubility in water (water): very soluble
SMILES: Cl.NCC(=O)CCC(=O)O [ALA HCl, 5-amino-4-oxopentanoic acid hydrochloride]
